Laboratory results from patent US20230181509A1, “THE USE OF DIFFUSION ENHANCING COMPOUNDS FOR TREATMENT OF VIRAL AND BACTERIAL INDUCED RESPIRATORY DISEASE” (DIFFUSION PHARMACEUTICALS LLC, priority 2020, published 2023).
Like-named read-outs stand apart in the source and are kept apart here.

Experiments:
[1] = cited from earlier work
[2] = Solubility of TSC formulated with cyclodextrin and mannitol; type: physicochemical; conditions: formulated with a cyclodextrin and mannitol
Description: A trans carotenoid such as TSC can be formulated with a cyclodextrin as noted above and a non-metabolized sugar such as mannitol (e.g. d-mannitol to adjust the osmotic pressure to be the same as that of blood). […] This solution can be added to isotonic saline or to other isotonic solutions in order to dilute it and still maintain the proper osmolality.

[3] = Absorption into the blood stream after intramuscular injection of TSC with gamma cyclodextrin; type: in vivo; conditions: injected intramuscularly, rats
Description: The solutions need not be equal-molar.

[4] = after hemorrhagic shock in rats; cited from earlier work
[5] = cited from earlier work; remark: listed apart in the source
[6] = Solubility of TSC in water with gamma-cyclodextrin; type: physicochemical; conditions: TSC and gamma-cyclodextrin

| SMILES | diffusivity of oxygen in water [1] | TSC concentration of solutions that can be made [2] | absorption into the blood stream [3] | whole-body oxygen consumption [4] | diffusivity of oxygen through plasma ([1]; plasma) | oxygen levels, arterial and tissue ([5]; hypoxemic states) | oxygen levels, arterial and tissue ([5]; normoxic states) | TSC concentration reached in aqueous solution [6] |
| --- | --- | --- | --- | --- | --- | --- | --- | --- |
| CC(/C=C/C=C(\C)C(=O)O)=C\C=C\C=C(C)\C=C\C=C(/C)C(=O)O [crocetin, reference compound] | increase the diffusivity of oxygen in water |  |  |  |  |  |  |  |
| CC(/C=C/C=C(\C)C(=O)[O-])=C\C=C\C=C(C)\C=C\C=C(/C)C(=O)[O-].[Na+].[Na+] [TSC, trans sodium crocetinate] | increase the diffusivity of oxygen in water | over 20 mg TSC/ml of solution | Absorption is quick | increase whole-body oxygen consumption | increases the diffusivity of oxygen through plasma | increases oxygen levels | does not | ≤ 44 milligrams of TSC per ml of solution |
